Results from US20200315231A1, “CO-C[…]” (NESTES S,A,, priority 2016, published 2020).

Experiment: Water uptake behavior study in powder matrices at 33% Relative Humidity
Type: physicochemical
Conditions: all samples tested (maltodextrin, skimmed milk powder, full cream milk powder, growing up milk powder), co-crystal 7.6% by weight, 22 days, versus equivalent dry-mix CaCl2.2 H2O+sucrose
Experimental: The water uptake behavior was studied for the co-crystal of Sucrose.CaCl2.4 H2O in four different powder matrices: Maltodextrin (FIG. 5), skimmed milk powder (FIG. 6), full cream milk powder with 26% fat (FIG. 7), and powdered “growing up milk” (Nestlé BEBA3) (FIG. 8). For each matrix, three different calcium containing material were mixed into the powder to simulate calcium fortification. Powders were stored in a desiccator at 33% Relative Humidity over 22 days. The water uptake was measured every 3-4 days by tracking the weight change. The water uptake is shown in FIGS. 5 to 8): powder matrix alone (♦), powder matrix with CaCl2. 2 H2O (2.1% by weight): 13.59 g of matrix+290 mg of CaCl2.2 H2O (●), powder matrix with co-crystalline Sucrose.CaCl2.4 H2O (7.6% by weight): 13.59 g of matrix+1.04 g of co-crystal (▴), and powder matrix with the equivalent dry-mix: 13.59 g of matrix+290 mg of CaCl2.2 H2O+670 mg of sucrose (▪).

SMILES: O.O.O.O.OC[C@H]1O[C@@](CO)(O[C@H]2O[C@H](CO)[C@@H](O)[C@H](O)[C@H]2O)[C@@H](O)[C@@H]1O.[Ca+2].[Cl-].[Cl-] [co-crystal, Sucrose.CaCl2.4 H2O]
- water uptake (weight change) compared with the dry mix: lower for the co-crystal than for the dry mix
